In PubChem BioAssay (NCI):
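Cultured in 96-well plates, cells were exposed to test compound for 48 hours across five concentrations. GI50: concentration for 50% inhibition of growth. Definition used: TGI = concentration required for complete inhibition of growth.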

Experiments:
Assay in all cases: NCI-60 cell line screen, 48 h
786-0 renal = tested on: 786-0 renal
A498 renal = tested on: A498 renal
A549 NSCLC = tested on: A549 NSCLC
ACHN renal = tested on: ACHN renal
BT-549 breast = tested on: BT-549 breast
CAKI-1 renal = tested on: CAKI-1 renal
CCRF-CEM leukemia = tested on: CCRF-CEM leukemia
COLO 205 colon = tested on: COLO 205 colon
DU-145 prostate = tested on: DU-145 prostate
EKVX NSCLC = tested on: EKVX NSCLC
HCC-2998 colon = tested on: HCC-2998 colon
HCT-116 colon = tested on: HCT-116 colon
HCT-15 colon = tested on: HCT-15 colon
HOP-62 NSCLC = tested on: HOP-62 NSCLC
HOP-92 NSCLC = tested on: HOP-92 NSCLC
HS 578T breast = tested on: HS 578T breast
HT29 colon = tested on: HT29 colon
K-562 leukemia = tested on: K-562 leukemia
KM12 colon = tested on: KM12 colon
LOX IMVI melanoma = tested on: LOX IMVI melanoma
M14 melanoma = tested on: M14 melanoma
MALME-3M melanoma = tested on: MALME-3M melanoma
MCF7 breast = tested on: MCF7 breast
MDA-MB-231 breast = tested on: MDA-MB-231 breast
MDA-MB-435 = tested on: MDA-MB-435
MOLT-4 leukemia = tested on: MOLT-4 leukemia
NCI-H226 lung = tested on: NCI-H226 lung
NCI-H23 lung = tested on: NCI-H23 lung
NCI-H460 lung = tested on: NCI-H460 lung
NCI-H522 lung = tested on: NCI-H522 lung
NCI/ADR-RES ovarian = tested on: NCI/ADR-RES ovarian
OVCAR-3 ovarian = tested on: OVCAR-3 ovarian
OVCAR-4 ovarian = tested on: OVCAR-4 ovarian
OVCAR-5 ovarian = tested on: OVCAR-5 ovarian
OVCAR-8 ovarian = tested on: OVCAR-8 ovarian
PC-3 prostate = tested on: PC-3 prostate
RPMI-8226 leukemia = tested on: RPMI-8226 leukemia
RXF 393 renal = tested on: RXF 393 renal
SF-268 CNS = tested on: SF-268 CNS
SF-295 CNS = tested on: SF-295 CNS
SF-539 CNS = tested on: SF-539 CNS
SK-MEL-2 melanoma = tested on: SK-MEL-2 melanoma
SK-MEL-28 melanoma = tested on: SK-MEL-28 melanoma
SK-MEL-5 melanoma = tested on: SK-MEL-5 melanoma
SK-OV-3 ovarian = tested on: SK-OV-3 ovarian
SN12C renal = tested on: SN12C renal
SNB-19 CNS = tested on: SNB-19 CNS
SNB-75 CNS = tested on: SNB-75 CNS
SW-620 colon = tested on: SW-620 colon
T-47D breast = tested on: T-47D breast
TK-10 renal = tested on: TK-10 renal
U251 CNS = tested on: U251 CNS
UACC-257 melanoma = tested on: UACC-257 melanoma
UACC-62 melanoma = tested on: UACC-62 melanoma
UO-31 renal = tested on: UO-31 renal

Work on CN(C)CCCOc1cccc(NC2=C(Cl)C(=O)C(Nc3cccc(OCCCN(C)C)c3)=C(Cl)C2=O)c1 yielded a GI50 (786-0 renal) of 763 nM, a TGI (786-0 renal) of 2090 nM and a GI50 (A498 renal) of 1590 nM. For the same compound, the TGI (A498 renal) was 3010 nM, the GI50 (A549 NSCLC) was 1900 nM and the TGI (A549 NSCLC) was 3500 nM. The GI50 (ACHN renal) was 1780 nM, the TGI (ACHN renal) was 3160 nM and the GI50 (BT-549 breast) was 1570 nM. It also gave a TGI (BT-549 breast) of 2930 nM, a GI50 (CAKI-1 renal) of 1450 nM and a TGI (CAKI-1 renal) of 2760 nM. The GI50 (CCRF-CEM leukemia) was 402 nM, the TGI (CCRF-CEM leukemia) was 3260 nM and the GI50 (COLO 205 colon) was 1560 nM. For the same compound, the TGI (COLO 205 colon) was 3340 nM, the GI50 (DU-145 prostate) was 765 nM and the TGI (DU-145 prostate) was 2000 nM. It also gave a GI50 (EKVX NSCLC) of 1190 nM, a TGI (EKVX NSCLC) of 2540 nM and a GI50 (HCC-2998 colon) of 1340 nM. The TGI (HCC-2998 colon) was 2810 nM, the GI50 (HCT-116 colon) was 286 nM and the TGI (HCT-116 colon) was 804 nM. The GI50 (HCT-15 colon) was 911 nM, the TGI (HCT-15 colon) was 2450 nM and the GI50 (HOP-62 NSCLC) was 1930 nM. The TGI (HOP-62 NSCLC) was 3680 nM, the GI50 (HOP-92 NSCLC) was 580 nM and the TGI (HOP-92 NSCLC) was 1280 nM. The GI50 (HS 578T breast) was 2110 nM, the TGI (HS 578T breast) was 5400 nM and the GI50 (HT29 colon) was 560 nM. For the same compound, the TGI (HT29 colon) was 1590 nM, the GI50 (K-562 leukemia) was 307 nM and the TGI (K-562 leukemia) was 1420 nM. It also gave a GI50 (KM12 colon) of 1320 nM, a TGI (KM12 colon) of 2730 nM and a GI50 (LOX IMVI melanoma) of 175 nM. For the same compound, the TGI (LOX IMVI melanoma) was 346 nM, the GI50 (M14 melanoma) was 1330 nM and the TGI (M14 melanoma) was 2740 nM. For the same compound, the GI50 (MALME-3M melanoma) was 592 nM, the TGI (MALME-3M melanoma) was 1360 nM and the GI50 (MCF7 breast) was 184 nM. The TGI (MCF7 breast) was 408 nM, the GI50 (MDA-MB-231 breast) was 655 nM and the TGI (MDA-MB-231 breast) was 1600 nM. The GI50 (MDA-MB-435) was 1040 nM, the TGI (MDA-MB-435) was 2440 nM and the GI50 (MOLT-4 leukemia) was 515 nM. It also gave a TGI (MOLT-4 leukemia) of 1590 nM, a GI50 (NCI-H226 lung) of 5850 nM and a TGI (NCI-H226 lung) of 14100 nM. It also gave a GI50 (NCI-H23 lung) of 1130 nM, a TGI (NCI-H23 lung) of 2790 nM and a GI50 (NCI-H460 lung) of 1800 nM. For the same compound, the TGI (NCI-H460 lung) was 3480 nM, the GI50 (NCI-H522 lung) was 172 nM and the TGI (NCI-H522 lung) was 437 nM. It also gave a GI50 (NCI/ADR-RES ovarian) of 2620 nM, a TGI (NCI/ADR-RES ovarian) of 9690 nM and a GI50 (OVCAR-3 ovarian) of 188 nM. It also gave a TGI (OVCAR-3 ovarian) of 355 nM, a GI50 (OVCAR-4 ovarian) of 216 nM and a TGI (OVCAR-4 ovarian) of 592 nM. It also gave a GI50 (OVCAR-5 ovarian) of 1830 nM, a TGI (OVCAR-5 ovarian) of 3430 nM and a GI50 (OVCAR-8 ovarian) of 1570 nM. The TGI (OVCAR-8 ovarian) was 3440 nM, the GI50 (PC-3 prostate) was 1570 nM and the TGI (PC-3 prostate) was 3290 nM. It also gave a GI50 (RPMI-8226 leukemia) of 1250 nM, a TGI (RPMI-8226 leukemia) of 4540 nM and a GI50 (RXF 393 renal) of 885 nM. The TGI (RXF 393 renal) was 2220 nM, the GI50 (SF-268 CNS) was 1700 nM and the TGI (SF-268 CNS) was 3470 nM. It also gave a GI50 (SF-295 CNS) of 1730 nM, a TGI (SF-295 CNS) of 3180 nM and a GI50 (SF-539 CNS) of 1800 nM. It also gave a TGI (SF-539 CNS) of 3220 nM, a GI50 (SK-MEL-2 melanoma) of 1530 nM and a TGI (SK-MEL-2 melanoma) of 3200 nM. For the same compound, the GI50 (SK-MEL-28 melanoma) was 1710 nM, the TGI (SK-MEL-28 melanoma) was 3160 nM and the GI50 (SK-MEL-5 melanoma) was 1000 nM. The TGI (SK-MEL-5 melanoma) was 2370 nM, the GI50 (SK-OV-3 ovarian) was 5450 nM and the TGI (SK-OV-3 ovarian) was 18300 nM. The GI50 (SN12C renal) was 345 nM, the TGI (SN12C renal) was 865 nM and the GI50 (SNB-19 CNS) was 1780 nM. For the same compound, the TGI (SNB-19 CNS) was 3320 nM, the GI50 (SNB-75 CNS) was 1680 nM and the TGI (SNB-75 CNS) was 3600 nM. It also gave a GI50 (SW-620 colon) of 276 nM, a TGI (SW-620 colon) of 766 nM and a GI50 (T-47D breast) of 243 nM. It also gave a TGI (T-47D breast) of 779 nM, a GI50 (TK-10 renal) of 831 nM and a TGI (TK-10 renal) of 2120 nM. The GI50 (U251 CNS) was 1570 nM, the TGI (U251 CNS) was 2970 nM and the GI50 (UACC-257 melanoma) was 941 nM. The TGI (UACC-257 melanoma) was 2280 nM, the GI50 (UACC-62 melanoma) was 1500 nM and the TGI (UACC-62 melanoma) was 2950 nM. The GI50 (UO-31 renal) was 1450 nM and the TGI (UO-31 renal) was 2760 nM.
